The values below come from US20230183798A1, “COMPOSITIONS AND METHODS FOR MODIFYING POLYMERASE-NUCLEIC ACID COMPLEXES” (Pacific Biosciences of California, Inc., priority 2020, published 2023).

The subject of data set [1] is polymerase-nucleic acid complexes (ternary complexes). Briefly: Stripping nucleotides from ternary complexes: crosstalk metrics after NSB wash in 2x2 examination sequencing. Format: biochemical. The note with it: for Capability of stripping nucleotides from ternary complexes while retaining polymerase on primed-template nucleic acid: candidate in NSB; for Overall performance of NSB having candidate vs NSB having isopropanol: vs 20% v/v isopropanol (SOP) NSB; for A_T crosstalk (Cy5-dATP carryover from first exam into second exam) compared to NSB having isopropanol / C_G crosstalk (carryover of C signal from first exam into G channel of second exam) compared to NSB having isopropanol: alternating cycles vs 20% v/v isopropanol (SOP); for Concentration range in NSB found effective: other concentrations tested in addition to Table 1. On the procedure:
Template nucleic acid strands synthesized in 12 PCR reactions were prepared, and then independently bound to beads. […] Beads harboring immobilized template strands were then attached to the inner surface of a flow cell. Sequencing was performed for 22 cycles, where each cycle included subroutines for (i) Extension: adding a reversibly terminated nucleotide to primers that were hybridized to the immobilized templates, (ii) Examination: forming and detecting stabilized ternary complexes on the reversibly terminated, immobilized primer-template hybrids, and (iii) Activation: cleaving the reversible terminator from the extended primers.
The Examination subroutine was performed in a 2×2 format as diagrammed in FIG. 1. Specifically, a mixture of Cy5 labelled dATP, Cy7 labelled dCTP, unlabeled dTTP and unlabeled dGTP was delivered to the flow cell that contained polymerase-nucleic acid complexes on the beads, the system paused fluid flow to allow nucleotides to bind at cognate positions of the templates, thereby forming ternary complexes. Free nucleotide was removed from the flow cell by flowing IMG reagent. […] The flow cell was then imaged via fluorescence microscopy to detect ternary complexes that contained a labeled nucleotide that was a cognate for the next correct nucleotide in each of the template nucleic acids. The flow cell was then washed with NSB solutions having various compositions as set forth below. After the NSB wash, a mixture of Cy5 labelled dTTP, Cy7 labelled dGTP, unlabeled dCTP and unlabeled dATP was delivered to the flow cell, and the system paused fluid flow to allow nucleotides to bind, thereby forming ternary complexes. Free nucleotide was removed by flowing IMG reagent and then the flow cell was again imaged.
The concentrations are provided as a percentage in weight of compound per total volume of NSB (w/v) or volume of compound per total volume of NSB (v/v). The concentration can also be expressed as a molar concentration and this can be helpful, for example, as a way to compare the amounts of each compound tested. […] The molar concentrations of 1,5 pentanediol, propylene glycol, hexylene glycol, sulfolane, DMSO, ethyl methyl sulfone and 2-mthoxy ethanol in NSB were similar to the molar concentration of isopropanol in the SOP NSB.
The effectiveness of each candidate compound was determined from the following crosstalk metrics. The A_T crosstalk metric indicates how much Cy5-dATP is carried over from the first exam such that it is detected in the second exam. Similarly, the C_G crosstalk metric indicates how much Cy7-dCTP is carried over from the first exam such that it is detected in the second exam. A lower value for the crosstalk metric indicates less carryover and is correlated with improved sequencing results. On the other hand, a higher value for the crosstalk metric indicates more carryover and lower quality sequencing results.
Results were evaluated as a comparison of crosstalk metrics measured for NSB having 20% v/v/isopropanol (SOP) compared to the crosstalk metric measured for NSB having each of the respective candidate compounds. In all cases, the comparisons were based on data obtained for sequencing runs performed in a single lane of a flow cell. The format of the run was as follows: Cycle_1(SOP)=>Cycle_2(candidate)=>Cycle_3(SOP)=>Cycle_4(candidate) and so on. The crosstalk metric was determined separately for the SOP and candidate cycles, respectively. This format was used to minimize the confounding influence of run-to-run variations when comparing between SOP and each candidate.

Data set [2] is described as follows: Solubility of candidate compound in NSB. The note with it: NSB solution. It counts as physicochemical.
Data set [3] can be described thus: Stability of NSB fluid foam in a flow cell. Format: physicochemical. The note with it: 28% 1,6 hexanediol or 20% isopropanol, 55° C., images before and after 1 minute pause in flow. The procedure: NSB fluid foam having 20% isopropanol (SOP) or 28% 1,6 hexanediol was flowed through a flow cell (40 μl/s flow rate, 300 μl volume, 35 psi positive pressure, 55° C.). The flow was paused and a first image of the foam was acquired immediately. The foam was allowed to sit for 60 seconds and then a second image was taken.

Where [4] appears, read: NSB with candidate at Table 1 concentration, lower = less carryover.

As to `NCCCO` [3-Amino-1-propanol], the “Capability of stripping nucleotides from ternary complexes while retaining polymerase on primed-template nucleic acid” value (“Capability of stripping nucleotides” below) in data set [1] is given as “can also be useful”.

In the case of `CC(O)CO` (stereo not drawn) [Propylene glycol], in data set [1], the “Capability of stripping nucleotides” value is given as “capable of stripping nucleotides from ternary complexes while retaining polymerase association with primed-template nucleic acid” and the “Overall performance of NSB having candidate vs NSB having isopropanol” value (“Overall performance … vs NSB having isopropanol” for short) is given as “did not perform as well as isopropanol”.

With `OCCCCCCCCO` [1,8 octanediol], the “Solubility in NSB” value in data set [2] was “not immediately soluble”.

Turning to `CC(O)CCO` (stereo not drawn) [1,3 butanediol], in data set [1], the “Capability of stripping nucleotides” value was “capable of stripping nucleotides from ternary complexes while retaining polymerase association with primed-template nucleic acid” and the “Overall performance … vs NSB having isopropanol” value is “did not perform as well as isopropanol”.

As for `OCCCCCCO` [1,6 hexanediol], in “Flammability”, the Flammability entry is given as “non-flammable”. In data set [1] (setting [4]), the “A_T crosstalk (Cy5-dATP carryover from first exam into second exam) compared to NSB having isopropanol” value was “modestly lower” and the “C_G crosstalk (carryover of C signal from first exam into G channel of second exam) compared to NSB having isopropanol” value is on record as “significantly lower”. Besides, in data set [1], the “Concentration range in NSB found effective” value (shortened to “Concentration range”) is recorded as 10-31% and the “Overall performance … vs NSB having isopropanol” value is given as “outperformed NSB having isopropanol”. For the same compound, the Foam stability entry in data set [3] was “greater foam stability”.

For `COCCO` [2-methoxy ethanol], the “Capability of stripping nucleotides” value in data set [1] is given as “can also be useful”.

With hexylene glycol, in data set [1], the “Capability of stripping nucleotides” value was “capable of stripping nucleotides from ternary complexes while retaining polymerase association with primed-template nucleic acid” and the “Overall performance … vs NSB having isopropanol” value is “did not perform as well as isopropanol”.

Regarding `OCCCCCCCO` [1,7 heptanediol], in data set [1] (setting [4]), the “A_T crosstalk (Cy5-dATP carryover from first exam into second exam) compared to NSB having isopropanol” value was “better” and the “C_G crosstalk (carryover of C signal from first exam into G channel of second exam) compared to NSB having isopropanol” value was “better”. Besides, the “Overall performance … vs NSB having isopropanol” value in data set [1] was “outperformed NSB having isopropanol”.

Take `CCS(C)(=O)=O` [ethyl methyl sulfone]: in data set [1] (setting [4]), the “A_T crosstalk (Cy5-dATP carryover from first exam into second exam) compared to NSB having isopropanol” value is “stronger” and the A_T crosstalk metric entry is “below 0.2”. For the same compound, in data set [1], the “Concentration range” value is given as 1.4-2.8%.

Regarding `C[S+](C)[O-]` [DMSO, dimethyl sulfoxide], in data set [1] (setting [4]), the “A_T crosstalk (Cy5-dATP carryover from first exam into second exam) compared to NSB having isopropanol” value is given as “stronger” and the A_T crosstalk metric entry is on record as “below 0.35”. Moreover, in data set [1], the “Concentration range” value is on record as 21-26%.

Turning to `OCCCCCO` [1,5 pentanediol], in data set [1] (setting [4]), the “A_T crosstalk (Cy5-dATP carryover from first exam into second exam) compared to NSB having isopropanol” value was “stronger”, the “C_G crosstalk (carryover of C signal from first exam into G channel of second exam) compared to NSB having isopropanol” value is “stronger”, the A_T crosstalk metric entry is “about 0.16” and the C_G crosstalk metric entry is “about 0.16”.

With `CC(C)O` [Isopropanol, reference compound], the “Concentration range” value in data set [1] is 16-20%. In data set [3], the Foam stability result is “foam can be maintained to some degree”.

`O=S1(=O)CCCC1` [sulfolane]: in data set [1] (setting [4]), the “A_T crosstalk (Cy5-dATP carryover from first exam into second exam) compared to NSB having isopropanol” value is “comparable” and the “C_G crosstalk (carryover of C signal from first exam into G channel of second exam) compared to NSB having isopropanol” value was “better”. In addition, the “Overall performance … vs NSB having isopropanol” value in data set [1] was “outperformed NSB having isopropanol”.
